Measurements reported in US11331289B2, “Antimicrobial composition” (priority 2017, dated 2022).
In brackets after ≈: the same amount, converted by molar mass.

System: Malassezia pachydermatis
Assay: MIC, microdilution broth method
Type: cell-based
Description: Six clinical isolates from dog skin (n=5) and cats (n=1) which had been sent to EnvA (mycology laboratory of BioPôle Alfort) for mycological culture. The isolates, collected in March 2016, were identified as belonging to the species Malassezia pachydermatis. They were maintained by regular transplanting on medium of Sabouraud. Isolates are subcultured 2 to 3 days prior to testing sensitivity.
A stock solution of Oxyclozanide at 1600 μg/mL is prepared in DMSO. The stock solution is then diluted in DMSO to obtain a concentration range of 3.125 μg/ml to 800 μg/ml. A 1/50 dilution of this range and of the stock solution is then carried out in ultrapure water so as to obtain a concentration range of 0.0625 μg/ml to 32 μg/ml and containing 2% of DMSO. 50 μl of these solutions are deposited in wells of a microplate and then 50 μl of inoculum calibrated at 10^6 CFU/ml in Sabouraud/Tween 40 (2%) are added. A range of tested concentrations ranges from 0.0312 μg/mL to 16 μg/mL. The final concentration of DMSO in contact with the inoculum is 1%. The same dilution and seeding protocol was followed with a stock solution of amphotericin B at 1600 μg/ml. A “placebo” (or yeast growth control) column is systematically included in the plates. The plates are incubated at 37 ° C. The reading is done at 24 and 48 h. Several trials were conducted and protocol adjustments were required. In particular, the concentration of the inoculum had to be reduced for antifungal activity to be observed.

`C[C@@H]1[C@H](O)[C@@H](C)/C=C/C=C/C=C/C=C/C=C/C=C/C=C/[C@H](O[C@@H]2O[C@H](C)[C@@H](O)[C@H](N)[C@@H]2O)C[C@@H]2O[C@](O)(C[C@@H](O)C[C@@H](O)[C@H](O)CC[C@@H](O)C[C@@H](O)CC(=O)O[C@H]1C)C[C@H](O)[C@H]2C(=O)O` [Amphoterine B, amphotericin B] was tested, and the MIC (Isolate 1, Assay 1, 10^6 CFU/ml) was 2 µg/mL (≈ 2.16 µM), the MIC (Isolate 1, Assay 2, 10^6 CFU/ml) was 4 µg/mL (≈ 4.33 µM) and the MIC (Isolate 2, Assay 1, 10^6 CFU/ml) was 2 µg/mL (≈ 2.16 µM). For the same molecule, the MIC (Isolate 2, Assay 2, 10^6 CFU/ml) was 2 µg/mL (≈ 2.16 µM), the MIC (Isolate 3, Assay 1, 10^6 CFU/ml) was 4 µg/mL (≈ 4.33 µM) and the MIC (Isolate 3, Assay 2, 10^6 CFU/ml) was 8 µg/mL (≈ 8.66 µM). It also gave an MIC (Isolate 4, Assay 1, 10^6 CFU/ml) of 4 µg/mL (≈ 4.33 µM), an MIC (Isolate 4, Assay 2, 10^6 CFU/ml) of 4 µg/mL (≈ 4.33 µM) and an MIC (Isolate 5, Assay 1, 10^6 CFU/ml) of 4 µg/mL (≈ 4.33 µM). For the same molecule, the MIC (Isolate 5, Assay 2, 10^6 CFU/ml) was 4 µg/mL (≈ 4.33 µM), the MIC (Isolate 6, Assay 1, 10^6 CFU/ml) was 4 µg/mL (≈ 4.33 µM) and the MIC (Isolate 6, Assay 2, 10^6 CFU/ml) was 8 µg/mL (≈ 8.66 µM).
